Reference: patent publication US20230101963A1, “TREATMENT OF MEDICAL INDICATION” (VALLAURIX TRADING SARL MC, priority 2020, published 2023)

Key:
hMC2R = hMC2R (Homo sapiens, UniProt Q01718); assay: agonist activity on hMC2R; format: biochemical; conditions: versus selective agonist affinity for hMC1R and hMC4R
[1] = in vivo
Text: For the purpose of the invention, the BBB permeability refers to the ability of a compound to cross the Blood-Brain-Barrier (BBB) that is intact, i.e. not leaking or otherwise compromised. Permeability can be determined based on presence of central effects (or side-effects). A compound with BBB permeability can show central effects or side-effects.
BBB permeable is the ability of a compound to pass the BBB that is intact and for instance not leaking or otherwise compromised. Permeability can be determined based on presence of central effects (or side-effects) after peripheral administration of the compound.

Chain of hMC2R (Q01718 whole entry): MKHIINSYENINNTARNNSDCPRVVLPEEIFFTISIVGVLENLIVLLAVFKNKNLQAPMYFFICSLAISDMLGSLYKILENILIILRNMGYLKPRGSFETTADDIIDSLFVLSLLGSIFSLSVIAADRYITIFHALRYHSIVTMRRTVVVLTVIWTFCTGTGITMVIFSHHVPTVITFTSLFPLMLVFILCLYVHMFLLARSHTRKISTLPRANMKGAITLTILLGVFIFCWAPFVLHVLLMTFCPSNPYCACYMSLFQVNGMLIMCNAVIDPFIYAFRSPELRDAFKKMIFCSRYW
Chain of hMC2R (Q8TCY5 whole entry partner): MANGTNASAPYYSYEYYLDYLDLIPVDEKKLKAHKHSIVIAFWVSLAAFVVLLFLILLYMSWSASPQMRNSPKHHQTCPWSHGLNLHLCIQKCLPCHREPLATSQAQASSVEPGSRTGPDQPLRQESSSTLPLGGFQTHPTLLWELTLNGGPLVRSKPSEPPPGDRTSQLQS

## CCCC[C@H](NC(C)=O)C(=O)N[C@H]1CC(=O)NCCCC[C@@H](C(=O)O)NC(=O)[C@H](Cc2c[nH]c3ccccc23)NC(=O)[C@H](CCCN=C(N)N)NC(=O)[C@@H](Cc2ccccc2)NC(=O)[C@H](Cc2cnc[nH]2)NC1=O [bremelanotide, Ac-Nle-cyclo-(Asp-His-D-Phe-Arg-Trp-Lys-OH)]
hMC2R
  activity on hMC2R: none
[1]
  central activity in human, indicating passage of the human blood-brain-barrier: show central activity in human
